Source: ChEMBL document CHEMBL4825757, “Optimization of 4,6-Disubstituted Pyrido[3,2-d]pyrimidines as Dual MNK/PIM Inhibitors to Inhibit Leukemia Cell Growth” (J Med Chem, 2021)
The source made the active and inactive calls. The rule behind the calls is not given here.

Assays:
MOLM-13 [1] = test: Downregulation of c-myc levels in human MOLM-13 cells at 20 to 40 uM incubated for 12 hrs by western blot analysis; assay type: functional, cell-based; conditions: dose 20-40 µM
MOLM-13 [2] = test: Downregulation of mcl-1 levels in human MOLM-13 cells at 20 to 40 uM incubated for 12 hrs by western blot analysis; assay type: functional, cell-based; conditions: dose 20-40 µM
MOLM-13 [3] = test: Antiproliferative activity against human MOLM13 cells assessed as reduction of cell viability incubated for 72 hrs by trypan blue staining based cell counting analysis; assay type: functional
MOLM-13 [4] = test: Induction of cell cycle arrest in human MOLM-13 cells assessed as sub-G1 phase at 40 uM incubated for 12 hr by propidium iodide based flow cytometry analysis (Rvb= 4.78%); assay type: functional
K562 = test: Antiproliferative activity against human K562 cells assessed as reduction of cell viability incubated for 72 hrs by trypan blue staining based cell counting analysis; assay type: functional
HL-60 = test: Antiproliferative activity against human HL-60 cells assessed as reduction of cell viability incubated for 72 hrs by trypan blue staining based cell counting analysis; assay type: functional
MOLM-13 [5] = test: Induction of cell cycle arrest in human MOLM-13 cells assessed as sub-G1 phase at 20 uM incubated for 12 hr by propidium iodide based flow cytometry analysis (Rvb= 4.78%); assay type: functional
MOLM-13 [6] = test: Induction of apoptosis in human MOLM-13 cells assessed as live cells at 20 uM incubated for 12 hrs by annexin-V and propidium iodide staining based flow cytometry analysis (reference value: 91.49%); assay type: functional
[7] = molecular target: T1, Serine/threonine-protein kinase PIM (Homo sapiens) (UniProt P11309+Q9P1W9+Q86V86); test: Inhibition of PIM in human MOLM-13 cells assessed as reduction of BAD phosphorylation at 20 to 40 uM incubated for 12 hrs by western blot analysis; assay type: cell-based; conditions: dose 20-40 µM
MOLM-13 [8] = test: Induction of apoptosis in human MOLM-13 cells assessed as early apoptotic cells at 20 uM incubated for 12 hrs by annexin-V and propidium iodide staining based flow cytometry analysis (reference value: 5.40%); assay type: functional
MOLM-13 [9] = test: Downregulation of cyclin-D1 levels in human MOLM-13 cells at 20 to 40 uM incubated for 12 hrs by western blot analysis; assay type: functional, cell-based; conditions: dose 20-40 µM
MOLM-13 [10] = test: Induction of apoptosis in human MOLM-13 cells assessed as late apoptotic cells at 40 uM incubated for 12 hrs by annexin-V and propidium iodide staining based flow cytometry analysis (reference value: 3.03%); assay type: functional
[11] = molecular target: T1, Serine/threonine-protein kinase PIM (Homo sapiens); test: Inhibition of PIM in human MOLM-13 cells assessed as reduction in phosphorylated 4EBP1 at 20 to 40 uM incubated for 12 hrs by western blot analysis; assay type: cell-based; conditions: dose 20-40 µM
MOLM-13 [12] = test: Induction of cell cycle arrest in human MOLM-13 cells assessed as G1 phase at 20 uM incubated for 12 hr by propidium iodide based flow cytometry analysis (Rvb= 51.29%); assay type: functional
MOLM-13 [13] = test: Induction of cell cycle arrest in human MOLM-13 cells assessed as G1 phase at 40 uM incubated for 12 hr by propidium iodide based flow cytometry analysis (Rvb= 51.29%); assay type: functional
MOLM-13 [14] = test: Induction of apoptosis in human MOLM-13 cells assessed as necrotic cells at 20 uM incubated for 12 hrs by annexin-V and propidium iodide staining based flow cytometry analysis (reference value: 0.06%); assay type: functional
MOLM-13 [15] = test: Induction of apoptosis in human MOLM-13 cells assessed as necrotic cells at 40 uM incubated for 12 hrs by annexin-V and propidium iodide staining based flow cytometry analysis (reference value: 0.06%); assay type: functional
MOLM-13 [16] = test: Induction of apoptosis in human MOLM-13 cells assessed as early apoptotic cells at 40 uM incubated for 12 hrs by annexin-V and propidium iodide staining based flow cytometry analysis (reference value: 5.40%); assay type: functional
[17] = molecular target: MAP kinase-interacting serine/threonine-protein kinase 1 (Homo sapiens, UniProt Q9BUB5); test: Inhibition of MKN1 (unknown origin) at 1 uM in presence of ATP by HTRF assay
MOLM-13 [18] = test: Induction of apoptosis in human MOLM-13 cells assessed as late apoptotic cells at 20 uM incubated for 12 hrs by annexin-V and propidium iodide staining based flow cytometry analysis (reference value: 3.03%); assay type: functional
MOLM-13 [19] = test: Induction of apoptosis in human MOLM-13 cells assessed as live cells at 40 uM incubated for 12 hrs by annexin-V and propidium iodide staining based flow cytometry analysis (reference value: 91.49%); assay type: functional

T1 sequence (P11309 whole entry, looked up): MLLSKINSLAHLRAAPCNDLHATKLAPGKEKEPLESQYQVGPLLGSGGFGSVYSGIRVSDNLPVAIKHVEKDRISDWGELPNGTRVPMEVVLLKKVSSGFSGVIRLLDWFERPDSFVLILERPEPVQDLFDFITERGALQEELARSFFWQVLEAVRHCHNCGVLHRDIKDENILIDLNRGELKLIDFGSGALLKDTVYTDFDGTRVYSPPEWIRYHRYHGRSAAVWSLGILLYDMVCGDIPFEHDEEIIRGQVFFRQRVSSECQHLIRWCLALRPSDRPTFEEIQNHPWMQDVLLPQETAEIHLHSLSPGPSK
T1 sequence (Q9P1W9 whole entry, looked up): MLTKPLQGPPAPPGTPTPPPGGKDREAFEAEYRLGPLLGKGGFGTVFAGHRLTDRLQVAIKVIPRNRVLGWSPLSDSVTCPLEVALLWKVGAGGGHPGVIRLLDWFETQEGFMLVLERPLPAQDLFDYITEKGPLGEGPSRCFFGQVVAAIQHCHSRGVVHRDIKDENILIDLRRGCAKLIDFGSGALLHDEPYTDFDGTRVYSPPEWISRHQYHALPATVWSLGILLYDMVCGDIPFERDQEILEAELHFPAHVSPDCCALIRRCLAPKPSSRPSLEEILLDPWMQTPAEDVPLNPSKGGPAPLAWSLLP
Chain of MAP kinase-interacting serine/threonine-protein kinase 1 (Q9BUB5 whole entry, looked up): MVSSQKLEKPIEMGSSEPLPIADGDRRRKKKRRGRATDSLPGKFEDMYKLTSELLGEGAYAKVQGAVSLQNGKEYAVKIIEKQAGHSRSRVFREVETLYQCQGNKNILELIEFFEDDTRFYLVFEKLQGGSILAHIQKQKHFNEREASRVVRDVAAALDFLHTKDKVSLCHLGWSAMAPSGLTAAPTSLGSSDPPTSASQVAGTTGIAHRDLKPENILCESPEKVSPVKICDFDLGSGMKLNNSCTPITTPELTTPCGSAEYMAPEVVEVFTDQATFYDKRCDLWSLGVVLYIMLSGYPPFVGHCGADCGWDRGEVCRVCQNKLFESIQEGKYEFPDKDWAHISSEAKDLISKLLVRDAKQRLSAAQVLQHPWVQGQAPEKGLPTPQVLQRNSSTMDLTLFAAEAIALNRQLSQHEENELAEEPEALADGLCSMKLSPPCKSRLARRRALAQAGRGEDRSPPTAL

## Nc1ncnc2[nH]nc(Nc3ccc(F)cc3)c12
MOLM-13 [1]
  Activity: Active
MOLM-13 [2]
  Activity: Active
MOLM-13 [3]
  GI50: 9.88 µM
MOLM-13 [4]
  Activity: 12.28%
K562
  GI50: 28.8 µM
HL-60
  GI50: 7.26 µM
MOLM-13 [5]
  Activity: 8.3%
MOLM-13 [6]
  Activity: 86.89%
[7]
  inhibition: inactive
MOLM-13 [8]
  Activity: 9.93%
MOLM-13 [9]
  Activity: Active
MOLM-13 [10]
  Activity: 2.73%
[11]
  inhibition: Active
MOLM-13 [12]
  Activity: 65.2%
MOLM-13 [13]
  Activity: 62.49%
MOLM-13 [14]
  Activity: 0.04%
MOLM-13 [15]
  Activity: 0.18%
MOLM-13 [16]
  Activity: 13.19%
[17]
  inhibition: 78%
MOLM-13 [18]
  Activity: 3.05%
MOLM-13 [19]
  Activity: 83.9%
